In ChEMBL document CHEMBL1129456, “Synthesis and evaluation of two positron-labeled nitric oxide synthase inhibitors, S-[11C]methylisothiourea and S-(2-[18F]fluoroethyl)isothiourea, as potential positron emission tomography tracers” (J Med Chem, 1996):

Key:
[1] = target: T1, Nitric oxide synthase 3 (Homo sapiens, UniProt P29474); assay: The compound was evaluated for the inhibitory potencies using human Endothelial nitric oxide synthase
T1 sequence (P29474 whole entry): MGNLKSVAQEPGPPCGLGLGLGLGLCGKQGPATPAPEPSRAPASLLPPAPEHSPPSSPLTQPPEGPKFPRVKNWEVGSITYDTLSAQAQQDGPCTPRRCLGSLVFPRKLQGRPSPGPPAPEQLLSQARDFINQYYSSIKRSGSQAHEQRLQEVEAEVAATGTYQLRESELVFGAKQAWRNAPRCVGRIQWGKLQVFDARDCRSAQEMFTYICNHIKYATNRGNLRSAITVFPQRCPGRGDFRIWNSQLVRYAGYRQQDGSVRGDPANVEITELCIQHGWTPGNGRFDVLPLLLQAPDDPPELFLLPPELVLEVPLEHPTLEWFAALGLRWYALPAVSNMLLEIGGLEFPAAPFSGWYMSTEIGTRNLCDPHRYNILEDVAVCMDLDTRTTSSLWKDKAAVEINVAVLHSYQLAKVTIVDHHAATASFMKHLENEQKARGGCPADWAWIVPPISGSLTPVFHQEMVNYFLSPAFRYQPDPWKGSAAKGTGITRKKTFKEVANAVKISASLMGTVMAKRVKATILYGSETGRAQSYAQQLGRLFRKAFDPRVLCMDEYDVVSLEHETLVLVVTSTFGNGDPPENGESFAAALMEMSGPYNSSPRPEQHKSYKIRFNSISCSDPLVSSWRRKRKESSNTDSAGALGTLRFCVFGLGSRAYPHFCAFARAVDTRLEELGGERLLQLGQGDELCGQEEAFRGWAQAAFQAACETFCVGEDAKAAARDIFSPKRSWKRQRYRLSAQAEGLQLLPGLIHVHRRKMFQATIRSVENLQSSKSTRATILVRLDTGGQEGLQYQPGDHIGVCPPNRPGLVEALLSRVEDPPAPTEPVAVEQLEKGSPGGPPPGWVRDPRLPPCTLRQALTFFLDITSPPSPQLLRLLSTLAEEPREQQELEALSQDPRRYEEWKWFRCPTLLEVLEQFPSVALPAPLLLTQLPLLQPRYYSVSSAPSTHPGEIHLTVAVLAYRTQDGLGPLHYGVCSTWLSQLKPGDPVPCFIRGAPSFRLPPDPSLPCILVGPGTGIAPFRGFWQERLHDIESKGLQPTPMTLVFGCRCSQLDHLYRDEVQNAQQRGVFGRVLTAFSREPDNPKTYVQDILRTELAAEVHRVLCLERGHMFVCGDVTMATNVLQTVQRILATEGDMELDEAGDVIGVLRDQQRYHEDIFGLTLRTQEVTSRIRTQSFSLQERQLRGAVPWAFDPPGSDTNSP

[2] = target: Nitric oxide synthase, inducible (Homo sapiens, UniProt P35228); assay: The compound was evaluated for the inhibitory potencies using human Inducible nitric oxide synthase (hiNOS)
Chain of Nitric oxide synthase, inducible (Homo sapiens, UniProt P35228) (P35228 whole entry): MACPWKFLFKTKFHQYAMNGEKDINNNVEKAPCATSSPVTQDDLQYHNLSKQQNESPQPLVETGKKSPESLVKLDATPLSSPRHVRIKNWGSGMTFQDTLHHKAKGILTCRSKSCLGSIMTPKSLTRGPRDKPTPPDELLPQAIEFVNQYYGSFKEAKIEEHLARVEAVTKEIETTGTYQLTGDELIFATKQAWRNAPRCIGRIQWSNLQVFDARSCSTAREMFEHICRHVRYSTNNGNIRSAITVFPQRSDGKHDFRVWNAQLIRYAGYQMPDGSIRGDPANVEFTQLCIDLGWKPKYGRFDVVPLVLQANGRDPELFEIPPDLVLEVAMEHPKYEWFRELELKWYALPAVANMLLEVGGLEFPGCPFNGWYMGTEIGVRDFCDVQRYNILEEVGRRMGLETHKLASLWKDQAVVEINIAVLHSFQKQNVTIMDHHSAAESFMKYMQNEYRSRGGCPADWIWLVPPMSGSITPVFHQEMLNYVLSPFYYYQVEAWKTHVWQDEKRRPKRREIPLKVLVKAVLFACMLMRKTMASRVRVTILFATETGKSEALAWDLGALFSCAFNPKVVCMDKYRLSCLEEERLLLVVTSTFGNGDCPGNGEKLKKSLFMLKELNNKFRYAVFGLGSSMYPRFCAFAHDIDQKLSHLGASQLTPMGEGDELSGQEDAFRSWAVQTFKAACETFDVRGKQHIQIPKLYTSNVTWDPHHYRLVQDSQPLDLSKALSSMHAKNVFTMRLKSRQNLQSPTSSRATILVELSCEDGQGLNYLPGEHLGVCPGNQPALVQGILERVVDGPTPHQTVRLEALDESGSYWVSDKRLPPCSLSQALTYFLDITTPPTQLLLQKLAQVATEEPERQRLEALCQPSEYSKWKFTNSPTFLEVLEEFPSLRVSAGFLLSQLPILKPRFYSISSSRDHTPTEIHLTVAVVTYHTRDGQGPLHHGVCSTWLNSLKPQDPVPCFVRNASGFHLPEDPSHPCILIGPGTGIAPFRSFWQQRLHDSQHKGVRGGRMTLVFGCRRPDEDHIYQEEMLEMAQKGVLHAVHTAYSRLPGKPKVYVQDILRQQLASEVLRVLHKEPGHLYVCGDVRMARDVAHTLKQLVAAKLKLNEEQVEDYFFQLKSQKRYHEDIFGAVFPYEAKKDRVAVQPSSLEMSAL

[3] = organism: Rattus norvegicus; assay: Biodistribution in heart of mature female Dawley rat after 1h, expressed as percent injected dose/g; format: ADME, organism-based; conditions: in vivo
[4] = organism: Rattus norvegicus; assay: Biodistribution in heart of mature female Dawley rat after 3 h, expressed as percent injected dose/g; format: ADME, organism-based; conditions: in vivo
[5] = organism: Rattus norvegicus; assay: Biodistribution in heart of mature female Dawley rat after 30min, expressed as percent injected dose/g; format: ADME, organism-based; conditions: in vivo, 0.5 h
[6] = organism: Rattus norvegicus; assay: Biodistribution in kidney of mature female Dawley rat after 10min, expressed as percent injected dose/g; format: ADME, organism-based; conditions: in vivo
[7] = organism: Rattus norvegicus; assay: Biodistribution in kidney of mature female Dawley rat after 3 h, expressed as percent injected dose/g; format: ADME, organism-based; conditions: in vivo
[8] = organism: Rattus norvegicus; assay: Biodistribution in kidney of mature female Dawley rat after 30min, expressed as percent injected dose/g; format: ADME, organism-based; conditions: in vivo, 0.5 h
[9] = organism: Rattus norvegicus; assay: Biodistribution in liver of mature female Dawley rat after 10min, expressed as percent injected dose/g; format: ADME, organism-based; conditions: in vivo
[10] = organism: Rattus norvegicus; assay: Biodistribution in lung of mature female Dawley rat after 10min, expressed as percent injected dose/g; format: ADME, organism-based; conditions: in vivo
[11] = organism: Rattus norvegicus; assay: Biodistribution in muscle of mature female Dawley rat after 10min, expressed as percent injected dose/g; format: ADME, organism-based, Muscle tissue; conditions: in vivo
[12] = organism: Rattus norvegicus; assay: Biodistribution in muscle of mature female Dawley rat after 1h, expressed as percent injected dose/g; format: ADME, organism-based, Muscle tissue; conditions: in vivo
[13] = organism: Rattus norvegicus; assay: Biodistribution in muscle of mature female Dawley rat after 3 h, expressed as percent injected dose/g; format: ADME, organism-based, Muscle tissue; conditions: in vivo
[14] = organism: Rattus norvegicus; assay: Biodistribution in muscle of mature female Dawley rat after 30min, expressed as percent injected dose/g; format: ADME, organism-based, Muscle tissue; conditions: in vivo, 0.5 h
[15] = organism: Rattus norvegicus; assay: Biodistribution inl ilver of mature female Dawley rat after 30min, expressed as percent injected dose/g; format: ADME, organism-based; conditions: in vivo, 0.5 h
[16] = organism: Rattus norvegicus; assay: Biodistribution inl iver of mature female Dawley rat after 3 h, expressed as percent injected dose/g; format: ADME, organism-based, Liver; conditions: in vivo
[17] = organism: Rattus norvegicus; assay: Biodistribution in abdominal Dawley rat after 30min, expressed as percent injected dose/g; format: ADME, organism-based; conditions: in vivo, 0.5 h
[18] = organism: Rattus norvegicus; assay: Biodistribution in abdominal of mature female Dawley rat after 10min, expressed as percent injected dose/g; format: ADME, organism-based, Abdominal cavity; conditions: in vivo
[19] = organism: Rattus norvegicus; assay: Biodistribution in abdominal of mature female Dawley rat after 1h, expressed as percent injected dose/g; format: ADME, organism-based, Abdominal cavity; conditions: in vivo
[20] = organism: Rattus norvegicus; assay: Biodistribution in abdominal of mature female Dawley rat after 3 h, expressed as percent injected dose/g; format: ADME, organism-based, Abdominal cavity; conditions: in vivo
[21] = organism: Rattus norvegicus; assay: Biodistribution in blood of mature female Dawley rat after 10min, expressed as percent injected dose/g; format: ADME, organism-based; conditions: in vivo
[22] = organism: Rattus norvegicus; assay: Biodistribution in blood of mature female Dawley rat after 1h, expressed as percent injected dose/g; format: ADME, organism-based; conditions: in vivo
[23] = organism: Rattus norvegicus; assay: Biodistribution in blood of mature female Dawley rat after 3 h, expressed as percent injected dose/g; format: ADME, organism-based; conditions: in vivo
[24] = organism: Rattus norvegicus; assay: Biodistribution in blood of mature female Dawley rat after 30min, expressed as percent injected dose/g; format: ADME, organism-based; conditions: in vivo, 0.5 h
[25] = organism: Rattus norvegicus; assay: Biodistribution in bone of mature female Dawley rat after 10min, expressed as percent injected dose/g; format: ADME, organism-based, Bone element; conditions: in vivo
[26] = organism: Rattus norvegicus; assay: Biodistribution in brain of mature female Dawley rat after 30min, expressed as percent injected dose/g; format: ADME, organism-based; conditions: in vivo, 0.5 h
[27] = organism: Rattus norvegicus; assay: Biodistribution in fat of mature female Dawley rat after 10min, expressed as percent injected dose/g; format: ADME, organism-based, Adipose tissue; conditions: in vivo
[28] = organism: Rattus norvegicus; assay: Biodistribution in fat of mature female Dawley rat after 1h, expressed as percent injected dose/g; format: ADME, organism-based, Adipose tissue; conditions: in vivo
[29] = organism: Rattus norvegicus; assay: Biodistribution in fat of mature female Dawley rat after 3 h, expressed as percent injected dose/g; format: ADME, organism-based, Adipose tissue; conditions: in vivo
[30] = organism: Rattus norvegicus; assay: Biodistribution in fat of mature female Dawley rat after 30min, expressed as percent injected dose/g; format: ADME, organism-based, Adipose tissue; conditions: in vivo, 0.5 h
[31] = organism: Rattus norvegicus; assay: Biodistribution in heart of mature female Dawley rat after 10min, expressed as percent injected dose/g; format: ADME, organism-based; conditions: in vivo
[32] = organism: Rattus norvegicus; assay: Biodistribution in bone of mature female Dawley rat after 3 h, expressed as percent injected dose/g; format: ADME, organism-based, Bone element; conditions: in vivo
[33] = organism: Rattus norvegicus; assay: Biodistribution in bone of mature female Dawley rat after 30min, expressed as percent injected dose/g; format: ADME, organism-based, Bone element; conditions: in vivo, 0.5 h
[34] = organism: Rattus norvegicus; assay: Biodistribution in brain of mature female Dawley rat after 10min, expressed as percent injected dose/g; format: ADME, organism-based; conditions: in vivo
[35] = organism: Rattus norvegicus; assay: Biodistribution in brain of mature female Dawley rat after 1h, expressed as percent injected dose/g; format: ADME, organism-based; conditions: in vivo
[36] = organism: Rattus norvegicus; assay: Biodistribution in brain of mature female Dawley rat after 3 h, expressed as percent injected dose/g; format: ADME, organism-based; conditions: in vivo
[37] = organism: Rattus norvegicus; assay: Biodistribution in bone of mature female Dawley rat after 1h, expressed as percent injected dose/g; format: ADME, organism-based, Bone element; conditions: in vivo
[38] = organism: Rattus norvegicus; assay: Biodistribution in lung of mature female Dawley rat after 1h, expressed as percent injected dose/g; format: ADME, organism-based; conditions: in vivo
[39] = organism: Rattus norvegicus; assay: Biodistribution in lung of mature female Dawley rat after 3 h, expressed as percent injected dose/g; format: ADME, organism-based; conditions: in vivo
[40] = organism: Rattus norvegicus; assay: Biodistribution in lung of mature female Dawley rat after 30min, expressed as percent injected dose/g; format: ADME, organism-based; conditions: in vivo, 0.5 h
[41] = organism: Rattus norvegicus; assay: Biodistribution in kidney of mature female Dawley rat after 1h, expressed as percent injected dose/g; format: ADME, organism-based; conditions: in vivo
[42] = organism: Rattus norvegicus; assay: Biodistribution inl liver of mature female Dawley rat after 1h, expressed as percent injected dose/g; format: ADME, organism-based; conditions: in vivo
[43] = target: T2, Nitric oxide synthase, inducible (Mus musculus, UniProt P29477); assay: Binding affinity against mouse Inducible nitric oxide synthase (iNOS)
T2 sequence (P29477 whole entry): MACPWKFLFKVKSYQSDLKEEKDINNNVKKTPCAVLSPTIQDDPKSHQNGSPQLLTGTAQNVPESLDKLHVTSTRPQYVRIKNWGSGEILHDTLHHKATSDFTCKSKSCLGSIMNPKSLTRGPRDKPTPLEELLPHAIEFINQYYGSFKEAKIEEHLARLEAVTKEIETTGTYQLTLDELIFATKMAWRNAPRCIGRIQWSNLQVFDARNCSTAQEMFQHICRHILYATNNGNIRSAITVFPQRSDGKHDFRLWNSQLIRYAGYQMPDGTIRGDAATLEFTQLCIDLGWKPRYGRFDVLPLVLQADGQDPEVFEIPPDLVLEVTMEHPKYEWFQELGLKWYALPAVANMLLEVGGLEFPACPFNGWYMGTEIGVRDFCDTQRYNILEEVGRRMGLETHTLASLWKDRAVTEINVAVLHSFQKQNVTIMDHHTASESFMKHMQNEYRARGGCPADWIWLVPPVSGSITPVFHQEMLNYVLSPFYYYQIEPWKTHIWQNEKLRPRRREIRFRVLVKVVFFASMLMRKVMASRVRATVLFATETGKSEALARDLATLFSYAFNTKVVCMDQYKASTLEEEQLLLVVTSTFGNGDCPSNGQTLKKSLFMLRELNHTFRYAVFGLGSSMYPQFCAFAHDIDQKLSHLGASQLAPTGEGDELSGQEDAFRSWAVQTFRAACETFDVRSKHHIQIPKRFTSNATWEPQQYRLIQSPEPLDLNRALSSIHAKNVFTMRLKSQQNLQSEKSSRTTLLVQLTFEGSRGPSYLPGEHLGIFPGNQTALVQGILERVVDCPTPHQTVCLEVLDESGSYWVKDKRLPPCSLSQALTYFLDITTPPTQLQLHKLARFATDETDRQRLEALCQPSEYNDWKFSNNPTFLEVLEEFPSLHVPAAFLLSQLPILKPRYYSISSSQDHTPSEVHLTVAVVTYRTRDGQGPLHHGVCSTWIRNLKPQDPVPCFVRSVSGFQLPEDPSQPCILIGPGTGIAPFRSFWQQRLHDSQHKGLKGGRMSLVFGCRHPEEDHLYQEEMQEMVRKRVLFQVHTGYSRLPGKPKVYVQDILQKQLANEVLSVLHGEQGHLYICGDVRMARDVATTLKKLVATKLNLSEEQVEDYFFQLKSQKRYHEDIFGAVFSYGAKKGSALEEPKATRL

[44] = organism: Rattus norvegicus; assay: Maximum enzyme concentration from lipopolysaccharide treated rat liver.; format: functional
[45] = Partition coefficient measured by octanol/water extraction at pH 6.8; format: physicochemical

## CSC(=N)N
[1]
  IC50: 7000 nM
[2]
  IC50: 3000 nM

## N=C(N)SCC[18F]
[3]
  Biodistribution: 0.29%
[4]
  Biodistribution: 0.16%
[5]
  Biodistribution: 0.37%
[6]
  Biodistribution: 1.82%
[7]
  Biodistribution: 0.21%
[8]
  Biodistribution: 1.06%
[9]
  Biodistribution: 0.95%
[10]
  Biodistribution: 1.02%
[11]
  Biodistribution: 0.33%
[12]
  Biodistribution: 0.32%
[13]
  Biodistribution: 0.14%
[14]
  Biodistribution: 0.38%
[15]
  Biodistribution: 0.51%
[16]
  Biodistribution: 0.16%
[17]
  Biodistribution: 0.31%
[18]
  Biodistribution: 0.38%
[19]
  Biodistribution: 0.26%
[20]
  Biodistribution: 0.16%
[21]
  Biodistribution: 0.32%
[22]
  Biodistribution: 0.32%
[23]
  Biodistribution: 0.19%
[24]
  Biodistribution: 0.27%
[25]
  Biodistribution: 0.55%
[26]
  Biodistribution: 0.15%
[27]
  Biodistribution: 0.08%
[28]
  Biodistribution: 0.07%
[29]
  Biodistribution: 0.04%
[30]
  Biodistribution: 0.07%
[31]
  Biodistribution: 0.62%
[32]
  Biodistribution: 1.19%
[33]
  Biodistribution: 0.82%
[34]
  Biodistribution: 0.14%
[35]
  Biodistribution: 0.17%
[36]
  Biodistribution: 0.16%
[37]
  Biodistribution: 0.88%
[38]
  Biodistribution: 0.38%
[39]
  Biodistribution: 0.17%
[40]
  Biodistribution: 0.57%
[41]
  Biodistribution: 0.64%
[42]
  Biodistribution: 0.35%

## CCSC(=N)N [ETHYLISOTHIOUREA]
[1]
  IC50: 1300 nM
[43]
  Ki: 5.2 nM
[2]
  IC50: 160 nM
[44]
  Bmax: 85 nM

## N=C(N)SCCF
[1]
  IC50: 1260 nM
[2]
  IC50: 140 nM

## [11CH3]SC(=N)N
[45]
  logD: -0.04
